Data on 26 compounds can be found in the supplement of paper PMC11061612.

Experiment [1] has as its system U-698-M. Nature of the experiment: Bliss excess, mean over the matrix (fraction); higher = more synergy. As to conditions: U-[…], B-Cell Non-Hodgkin's Lymphoma. Summed up: (§1)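 Cell lines in DMEM/F12 or RPMI with 10% FBS were plated in 1536-well plates, held 24 hours at 37°C, 5% CO2, then given two-drug dose matrices for 72 hours (DMSO typically 0.2%). Viability was read by CellTiter-Glo 2.0 luminescence and scaled as inhibition from 0 (vehicle wells) to 1 (blank wells). Combination Emax is the second-highest inhibition in the matrix; Bliss excess is observed combination effect minus expected EA + EB − EA·EB, EA and EB being single-agent effects.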

Experiment [2] concerns U-698-M. Kind of experiment: combination Emax (second highest fraction inhibited in the dose matrix, 72 h); higher = more inhibition. As to conditions: B-Cell Non-Hodgkin's Lymphoma. Summed up:
as §1

The mark [3] stands for this setting: first compound max 1 µM, partner max 1 µM.
The mark [4] stands for this setting: first compound max 1 µM, partner max 1 µM, 7x7.
Where [5] appears, read: first compound max 1 µM, partner max 10 µM, 7x7.
Setting [6] is: first compound max 0.001 µM, partner max 10 µM, 7x7.
Where [7] appears, read: first compound max 0.3 µM, partner max 1 µM, 7x7.
[8] abbreviates: first compound max 0.3 µM, partner max 10 µM, 7x7.
The mark [9] stands for this setting: first compound max 10 µM, partner max 1 µM.
[10] abbreviates: first compound max 10 µM, partner max 0.3 µM, 7x7.
The mark [11] stands for this setting: first compound max 10 µM, partner max 20 µM, 7x7.
[12] abbreviates: first compound max 10 µM, partner max 1 µM, 7x7.
Setting [13] is: first compound max 10 µM, partner max 10 µM, 7x7.
[14] abbreviates: first compound max 10 µM, partner max 5 µM, 7x7.
Setting [15] is: first compound max 1 µM, partner max 3 µM, 7x7.
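Wherever Bliss excess, mean over the matrix is given: after 72 h of two-drug dosing.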

For `COc1cccc(OCCCN)c1-c1cc(Nc2cnc(C#N)cn2)n[nH]1` [Prexasertib] + C=CCn1c(=O)c2cnc(Nc3ccc(N4CCN(C)CC4)cc3)nc2n1-c1cccc(C(C)(C)O)n1 [AZD1775], in the experiment with U-698-M [1] (setting [3]), the Bliss excess turned out to be 0.0762. The “combination Emax” value in the experiment with U-698-M [2] (first compound max 1 µM, partner max 1 µM, may be a limit of the assay) came out at 1.

As for `COc1cccc(OCCCN)c1-c1cc(Nc2cnc(C#N)cn2)n[nH]1` [Prexasertib] + CCc1c2c(nc3ccc(O)cc13)-c1cc3c(c(=O)n1C2)COC(=O)[C@]3(O)CC [SN-38], in the experiment on U-698-M [1] (first compound max 1 µM, partner max 0.3 µM, 7x7), the Bliss excess is 0.0237. Also, the “combination Emax” value in the experiment with U-698-M [2] (first compound max 1 µM, partner max 0.3 µM, 7x7, may be a limit of the assay) stood at 1.

Turning to `COc1cccc(OCCCN)c1-c1cc(Nc2cnc(C#N)cn2)n[nH]1` [Prexasertib] + CN(C)CCCOc1ccc(-c2ccc3ncc4c(c3c2)n(C2CCOCC2)c(=O)n4C)cn1 [AZD0156], the Bliss excess with U-698-M [1] (setting [4]) was 0.0361. Further, in the experiment with U-698-M [2] (first compound max 1 µM, partner max 1 µM, 7x7, may be a limit of the assay), the “combination Emax” value was determined as 1.

Take `COc1cccc(OCCCN)c1-c1cc(Nc2cnc(C#N)cn2)n[nH]1` [Prexasertib] + C[C@@H]1COCCN1C2=NC(=NC(=C2)C3(CC3)[S@](=N)(=O)C)C4=C5C=CNC5=NC=C4 [AZD6738]: the Bliss excess in the experiment on U-698-M [1] (setting [5]) was -0.0348. Also, the “combination Emax” value in the experiment on U-698-M [2] (setting [5]) was 0.996.

Consider `COc1cccc(OCCCN)c1-c1cc(Nc2cnc(C#N)cn2)n[nH]1` [Prexasertib] + Cc1cc2ncnn2cc1Nc1ncc2c(n1)n(C1CCOCC1)c(=O)n2C [AZD7648], for which, in the experiment on U-698-M [1] (setting [5]), the Bliss excess was -0.0029. In the experiment on U-698-M [2] (setting [5]), the “combination Emax” value is 0.975.

Regarding `COc1cccc(OCCCN)c1-c1cc(Nc2cnc(C#N)cn2)n[nH]1` [Prexasertib] + O=C(c1cc(Cc2n[nH]c(=O)c3ccccc23)ccc1F)N1CCN(C(=O)C2CC2)CC1 [Olaparib], the Bliss excess with U-698-M [1] (setting [5]) was -0.0433. The “combination Emax” value with U-698-M [2] (setting [5]) worked out at 0.953.

Take `COc1cc2c(cc1OCCCCCOc1cc3c(cc1OC)C(=O)N1C=C(C)C[C@H]1C=N3)N=C[C@@H]1CC(C)=CN1C2=O` [SG3199] + O=C(c1cc(Cc2n[nH]c(=O)c3ccccc23)ccc1F)N1CCN(C(=O)C2CC2)CC1 [Olaparib]: the Bliss excess in the experiment on U-698-M [1] (setting [6]) is -0.0531. Also, the “combination Emax” value in the experiment on U-698-M [2] (setting [6]) turned out to be 0.0822.

On to `CCc1c2c(nc3ccc(O)cc13)-c1cc3c(c(=O)n1C2)COC(=O)[C@]3(O)CC` [SN-38] + CN(C)CCCOc1ccc(-c2ccc3ncc4c(c3c2)n(C2CCOCC2)c(=O)n4C)cn1 [AZD0156], for which the Bliss excess in the experiment on U-698-M [1] (setting [7]) was 0.0615. Moreover, the “combination Emax” value in the experiment with U-698-M [2] (setting [7]) worked out at 0.908.

Take `CCc1c2c(nc3ccc(O)cc13)-c1cc3c(c(=O)n1C2)COC(=O)[C@]3(O)CC` [SN-38] + O=C(c1cc(Cc2n[nH]c(=O)c3ccccc23)ccc1F)N1CCN(C(=O)C2CC2)CC1 [Olaparib]: in the experiment on U-698-M [1] (setting [8]), the Bliss excess stood at 0.0095. For the same compound, in the experiment on U-698-M [2] (setting [8]), the “combination Emax” value was determined as 0.813.

For the compound `N#Cc1cnc(Nc2cc(NC[C@H]3CNCCO3)c(C(F)(F)F)cn2)cn1` [SRA737] + C=CCn1c(=O)c2cnc(Nc3ccc(N4CCN(C)CC4)cc3)nc2n1-c1cccc(C(C)(C)O)n1 [AZD1775], the Bliss excess with U-698-M [1] (setting [9]) is 0.0975. Besides, the “combination Emax” value in the experiment on U-698-M [2] (first compound max 10 µM, partner max 1 µM, may be a limit of the assay) was 1.

As for `N#Cc1cnc(Nc2cc(NC[C@H]3CNCCO3)c(C(F)(F)F)cn2)cn1` [SRA737] + CCc1c2c(nc3ccc(O)cc13)-c1cc3c(c(=O)n1C2)COC(=O)[C@]3(O)CC [SN-38], in the experiment with U-698-M [1] (setting [10]), the Bliss excess was -0.0229. Also, the “combination Emax” value with U-698-M [2] (setting [10]) was 0.963.

For the compound `N#Cc1cnc(Nc2cc(NC[C@H]3CNCCO3)c(C(F)(F)F)cn2)cn1` [SRA737] + Nc1ccn([C@@H]2O[C@H](CO)[C@@H](O)C2(F)F)c(=O)n1 [Gemcitabine], the Bliss excess in the experiment on U-698-M [1] (setting [10]) came to 0.111. Besides, in the experiment with U-698-M [2] (setting [10]), the “combination Emax” value was found to be 0.916.

As to `N#Cc1cnc(Nc2cc(NC[C@H]3CNCCO3)c(C(F)(F)F)cn2)cn1` [SRA737] + O=c1[nH]cc(F)c(=O)[nH]1 [5-Fluorouracil], in the experiment with U-698-M [1] (setting [11]), the Bliss excess is -0.0673. Further, the “combination Emax” value with U-698-M [2] (setting [11]) was 0.798.

Consider `C[C@@H](c1ccc2nccn2c1)n1nnc2ncc(-c3cnn(C)c3)nc21` [Savolitinib] + CC1(C)CCC(CN2CCN(c3ccc(C(=O)NS(=O)(=O)c4ccc(NCC5CCOCC5)c([N+](=O)[O-])c4)c(Oc4cnc5[nH]ccc5c4)c3)CC2)=C(c2ccc(Cl)cc2)C1 [Venetoclax], for which the Bliss excess in the experiment with U-698-M [1] (setting [4]) is -0.0313. Moreover, the “combination Emax” value in the experiment with U-698-M [2] (setting [4]) turned out to be 0.191.

Regarding `C[C@@H](c1ccc2nccn2c1)n1nnc2ncc(-c3cnn(C)c3)nc21` [Savolitinib] + Cc1c2c(nn1C)CSCc1cc(n(C)n1)CSc1cc(c3ccccc3c1)OCCCc1c(C(=O)O)n(C)c3c-2c(Cl)ccc13 [AZD5991], the Bliss excess with U-698-M [1] (setting [4]) is -0.0477. Further, the “combination Emax” value with U-698-M [2] (setting [4]) is 0.978.

For the compound `Cn1cnc2c(F)c(Nc3ccc(Br)cc3Cl)c(C(=O)NOCCO)cc21` [Selumetinib] + C=CCn1c(=O)c2cnc(Nc3ccc(N4CCN(C)CC4)cc3)nc2n1-c1cccc(C(C)(C)O)n1 [AZD1775], the Bliss excess with U-698-M [1] (setting [9]) is -0.0472. In addition, the “combination Emax” value with U-698-M [2] (setting [9]) worked out at 0.892.

As to `Cn1cnc2c(F)c(Nc3ccc(Br)cc3Cl)c(C(=O)NOCCO)cc21` [Selumetinib] + CC(C)n1c(=O)n(C)c2cnc3cc(F)c(-c4ccc(OCCCN5CCCCC5)nc4)cc3c21 [AZD1390], in the experiment with U-698-M [1] (setting [10]), the Bliss excess is -0.0149. In addition, the “combination Emax” value with U-698-M [2] (setting [10]) was 0.109.

For the compound `Cn1cnc2c(F)c(Nc3ccc(Br)cc3Cl)c(C(=O)NOCCO)cc21` [Selumetinib] + CCN(CCO)CCCOc1ccc2c(Nc3cc(CC(=O)Nc4cccc(F)c4)[nH]n3)ncnc2c1 [AZD2811], the Bliss excess in the experiment with U-698-M [1] (setting [12]) stood at 0.0099. In addition, the “combination Emax” value with U-698-M [2] (setting [12]) worked out at 0.253.

As for `Cn1cnc2c(F)c(Nc3ccc(Br)cc3Cl)c(C(=O)NOCCO)cc21` [Selumetinib] + C[C@@H]1COCCN1C2=NC(=NC(=C2)C3(CC3)[S@](=N)(=O)C)C4=C5C=CNC5=NC=C4 [AZD6738], the Bliss excess in the experiment on U-698-M [1] (setting [13]) is -0.0501. The “combination Emax” value in the experiment on U-698-M [2] (setting [13]) came out at 0.766.

Turning to `Cc1nc(-c2cn3c(n2)-c2ccc(-c4cnn(C(C)(C)C(N)=O)c4)cc2OCC3)n(C(C)C)n1` [Taselisib] + O=C(Nc1ccc2[nH]nc(-c3ccncc3)c2c1)[C@@H]1CCN(CC(=O)N2CCN(c3ccc(-c4ncccn4)cc3)CC2)C1 [SCH772984], the Bliss excess with U-698-M [1] (setting [14]) was -0.0189. Moreover, the “combination Emax” value with U-698-M [2] (setting [14]) amounted to 0.606.

Consider `CC(=O)Nc1cccc(-n2c(=O)n(C3CC3)c(=O)c3c(Nc4ccc(I)cc4F)n(C)c(=O)c(C)c32)c1` [Trametinib] + Cc1nc(-c2cn3c(n2)-c2ccc(-c4cnn(C(C)(C)C(N)=O)c4)cc2OCC3)n(C(C)C)n1 [Taselisib], for which the Bliss excess in the experiment with U-698-M [1] (setting [5]) is -0.0211. In the experiment with U-698-M [2] (setting [5]), the “combination Emax” value is 0.416.

Take `CC1(C)CCC(CN2CCN(c3ccc(C(=O)NS(=O)(=O)c4ccc(NCC5CCOCC5)c([N+](=O)[O-])c4)c(Oc4cnc5[nH]ccc5c4)c3)CC2)=C(c2ccc(Cl)cc2)C1` [Venetoclax] + C1CN(CCC1(C(=O)N[C@@H](CCO)C2=CC=C(C=C2)Cl)N)C3=NC=NC4=C3C=CN4 [Capivasertib]: the Bliss excess in the experiment on U-698-M [1] (setting [15]) was -0.0112. Also, in the experiment with U-698-M [2] (setting [15]), the “combination Emax” value was found to be 0.756.

In the case of `CC1(C)CCC(CN2CCN(c3ccc(C(=O)NS(=O)(=O)c4ccc(NCC5CCOCC5)c([N+](=O)[O-])c4)c(Oc4cnc5[nH]ccc5c4)c3)CC2)=C(c2ccc(Cl)cc2)C1` [Venetoclax] + C=CCn1c(=O)c2cnc(Nc3ccc(N4CCN(C)CC4)cc3)nc2n1-c1cccc(C(C)(C)O)n1 [AZD1775], the Bliss excess with U-698-M [1] (setting [3]) came out at 0.109. Moreover, the “combination Emax” value with U-698-M [2] (setting [3]) is 0.978.

As for `CC1(C)CCC(CN2CCN(c3ccc(C(=O)NS(=O)(=O)c4ccc(NCC5CCOCC5)c([N+](=O)[O-])c4)c(Oc4cnc5[nH]ccc5c4)c3)CC2)=C(c2ccc(Cl)cc2)C1` [Venetoclax] + CCN(CCO)CCCOc1ccc2c(Nc3cc(CC(=O)Nc4cccc(F)c4)[nH]n3)ncnc2c1 [AZD2811], in the experiment with U-698-M [1] (setting [4]), the Bliss excess was -0.0213. Moreover, the “combination Emax” value in the experiment with U-698-M [2] (setting [4]) was 0.6.

For `CC1(C)CCC(CN2CCN(c3ccc(C(=O)NS(=O)(=O)c4ccc(NCC5CCOCC5)c([N+](=O)[O-])c4)c(Oc4cnc5[nH]ccc5c4)c3)CC2)=C(c2ccc(Cl)cc2)C1` [Venetoclax] + CN(C)CCCOc1ccc(-c2ccc3ncc4c(c3c2)n(C2CCOCC2)c(=O)n4C)cn1 [AZD0156], in the experiment with U-698-M [1] (setting [4]), the Bliss excess was 0.0133. For the same compound, the “combination Emax” value with U-698-M [2] (setting [4]) was found to be 0.72.

On to `CC1(C)CCC(CN2CCN(c3ccc(C(=O)NS(=O)(=O)c4ccc(NCC5CCOCC5)c([N+](=O)[O-])c4)c(Oc4cnc5[nH]ccc5c4)c3)CC2)=C(c2ccc(Cl)cc2)C1` [Venetoclax] + COc1cc(Nc2ncc3c(n2)-c2ccc(Cl)cc2C(c2c(F)cccc2OC)=NC3)ccc1C(=O)O [Alisertib], for which the Bliss excess in the experiment with U-698-M [1] (setting [5]) amounted to 0.0827. The “combination Emax” value in the experiment on U-698-M [2] (setting [5]) was 0.592.
